Experimental data from patent US20240180883A1, “TREATMENT OF MIGRAINE” (Allergan Pharmaceuticals International Limited, priority 2020, published 2024).

Experiments:
Assay type in all cases: in vivo, human
[1] = Study B: drug interaction PK with rifampin; details: for half-life: read-out: Apparent terminal t1/2, mean (SD) (converted)
Text: Study B (rifampin) had two treatment periods. […] All treatments were received under fasted conditions.
Healthy adults aged 19-50 years for Study A and 18-45 years for Study B were eligible to participate. […] For study B, participants had to have a BMI between 18.0 and 30 kg/m^2. Exclusion criteria for both studies included hypersensitivity to any study drug; exposure to hepatitis B virus, hepatitis C virus, or HIV; or use of any drug or substance known to affect CYP enzymes or P-gp.

[2] = Phase 1 food effect study, 100 mg tablet fed vs fasted; details: for AUC(0-inf) / AUC(0-t) / Cmax / Tmax / Vd/F / half-life: both sexes, human, plasma, oral, 100 mg; for Vd/F: read-out: Vz/F, arithmetic mean (CV %); for half-life: read-out: t1/2, mean (CV %) (converted)
Procedure: The treatments were administered in 1 of 2 sequences in periods 1 and 2 with a washout period of at least 7 days between each treatment.
Eighteen healthy participants with a mean age of 28.4 years (range: 20 to 39 years) were enrolled. The majority of participants were male (14 of 18, 77.8%). […] Mean (SD) weight was 75.99 ([…]) kg and mean (SD) BMI was 25.03 (3.290) kg/m2. Participants were randomly assigned one of two treatments in 1 of 2 sequences in Periods 1 and 2, with a washout period of at least 7 days between each study treatment.
For fed participants, the standardized high-fat (approximately 50% of total caloric content of the meal) and high-calorie (total of approximately 800 to 1000 calories) breakfast derived approximately 150 calories from protein, 250 calories from carbohydrates, and 500 to 600 calories from fat. An example of a high-fat breakfast meal would be 2 eggs fried in butter, 2 strips of bacon, 2 slices of toast with butter, 4 ounces of hash brown potatoes, and 8 ounces of whole milk. […] Participants who were randomly assigned to receive ubrogepant under fed conditions were required to consume the high-fat, high-calorie breakfast in full. For all participants, no food was allowed for 4 hours following study treatment administration. Water was allowed as desired except for 1 hour before and 1 hour after study treatment administration.

[3] = Hepatic impairment study: adverse events
Text: Participants were queried regarding any AEs or SAEs at the time of each vital sign assessment, as well as at each visit through to the follow-up visit.
Criteria for potential Hy's Law cases were as follows: AST or ALT≥3×ULN and Total Bilirubin≥2×ULN and Alkaline phosphatase<2×ULN.

[4] = coadministered with rifampin 600 mg vs alone
[5] = ubrogepant 100 mg + rifampin 600 mg
[6] = ubrogepant 100 mg alone, listed as Ubrogepant
[7] = 100 mg single oral dose, all 28 participants
[8] = 100 mg single oral dose, mild hepatic impairment
[9] = 100 mg single oral dose, moderate hepatic impairment
[10] = 100 mg single oral dose, normal hepatic function
[11] = 100 mg single oral dose, severe hepatic impairment

With `C[C@@H]1[C@H](c2ccccc2)C[C@H](NC(=O)c2cnc3c(c2)C[C@@]2(C3)C(=O)Nc3ncccc32)C(=O)N1CC(F)(F)F` [ubrogepant, (3′S)-N-((3S,5S,6R)-6-methyl-2-oxo-5-phenyl-1-(2,2,2-trifluoroethyl)piperidin-3-yl)-2′-oxo-1′,2′,5,7-etrahydrospiro[cyclopenta[b]pyridine-6,3′-pyrrolo[2,3-b]pyridine]-3-carboxamide] the “reduction in ubrogepant AUC0-t” value [1, 4] was 78%, the “reduction in ubrogepant Cmax” value [1, 4] was 69% and the AUC(0-t) ([1]; human, plasma, oral, 100 mg, ubrogepant 100 mg alone, read-out: AUC0-t, mean (SD)) was 1880 ng·h/mL. For the same compound, the AUC(0-inf) ([1]; human, plasma, oral, 100 mg, ubrogepant 100 mg alone, read-out: AUC0-∞, mean (SD)) was 1910 ng·h/mL, the half-life ([1]; human, plasma, oral, 100 mg, ubrogepant 100 mg alone) was 4.4 h and the Cmax ([1]; human, plasma, oral, 100 mg, ubrogepant 100 mg alone, read-out: Cmax, mean (SD)) was 416 ng/mL. For the same compound, the AUC(0-t) ([1]; human, plasma, oral, 100 mg, ubrogepant 100 mg alone, read-out: Geometric LSM AUC0-t, Reference) was 1720 ng·h/mL, the AUC(0-inf) ([1]; human, plasma, oral, 100 mg, ubrogepant 100 mg alone, read-out: Geometric LSM AUC0-∞, Reference) was 1750 ng·h/mL and the Cmax ([1]; human, plasma, oral, 100 mg, ubrogepant 100 mg alone, read-out: Geometric LSM Cmax, Reference) was 375 ng/mL. The Tmax ([1]; human, plasma, oral, 100 mg, read-out: Tmax, median (range)) was 2 h, the Vd/F ([1]; human, plasma, oral, 100 mg, read-out: Vz/F) was 390 ± 174 L and the AUC(0-t) ([1]; human, plasma, oral, rifampin 600 mg in combination with ubrogepant 100 mg, read-out: Geometric LSM AUC0-t, Test) was 378 ng·h/mL. For the same compound, the AUC(0-inf) ([1]; human, plasma, oral, rifampin 600 mg in combination with ubrogepant 100 mg, read-out: Geometric LSM AUC0-∞, Test) was 379 ng·h/mL, the Cmax ([1]; human, plasma, oral, rifampin 600 mg in combination with ubrogepant 100 mg, read-out: Geometric LSM Cmax, Test) was 118 ng/mL and the AUC(0-t) ([1]; human, plasma, oral, ubrogepant 100 mg + rifampin 600 mg, read-out: AUC0-t, mean (SD)) was 396 ng·h/mL. It also gave an AUC(0-inf) ([1]; human, plasma, oral, ubrogepant 100 mg + rifampin 600 mg, read-out: AUC0-∞, mean (SD)) of 397 ng·h/mL, a half-life ([1]; human, plasma, oral, ubrogepant 100 mg + rifampin 600 mg) of 3 h and a Cmax ([1]; human, plasma, oral, ubrogepant 100 mg + rifampin 600 mg, read-out: Cmax, mean (SD)) of 136 ng/mL. For the same compound, the “Apparent terminal t1/2, mean (SD)” value [1, 5] was 3.04 (0.64) h, the CL/F [1, 5] was 282.87 ± 103.74 L/h and the CL/F ([1]; ubrogepant 100 mg alone) was 62.77 ± 28.33 L/h. The “Tmax, median (range)” value ([1]; ubrogepant 100 mg alone) was 2 h, the “Apparent terminal t1/2, mean (SD)” value [1, 6] was 4.36 (0.75) h and the “Tmax, median (range)” value [1, 6] was 2.00 (1.00-4.00) h. The “exposure of ubrogepant on co-administration” value ([1]; with rifampin, a strong CYP3A4 inducer) was “significant reduction in ubrogepant exposure”, the “effect of a high fat meal on extent of exposure (AUC0-t and AUC0-inf)” value ([2]; 1 × 100 mg tablet) was “did not affect the extent of exposure” and the “CL/F, arithmetic mean (CV %)” value ([2]; 1 × 100 mg tablet, fasted) was 77.29 (29.9) L/h. The “Tmax, median (minimum − maximum)” value ([2]; 1 × 100 mg tablet, fasted) was 1.00 (1.00-3.00) h, the “t1/2, mean (CV %)” value ([2]; 1 × 100 mg tablet, fasted) was 4.99 (23.0) h and the “CL/F, arithmetic mean (CV %)” value ([2]; 1 × 100 mg tablet, fed) was 76.55 (24.1) L/h. For the same compound, the “Tmax, median (minimum − maximum)” value ([2]; 1 × 100 mg tablet, fed) was 3.00 (0.50-4.00) h, the “t1/2, mean (CV %)” value ([2]; 1 × 100 mg tablet, fed) was 4.64 (11.1) h and the “maximum exposure (Cmax) lower under fed versus fasted conditions” value ([2]; 1 × 100 mg tablet, high fat meal) was “approximately 22%”. The AUC(0-inf) ([2]; 1 × 100 mg tablet, fasted, read-out: AUC0-inf, geometric mean (geometric CV %)) was 1360 ng·h/mL, the AUC(0-t) ([2]; 1 × 100 mg tablet, fasted, read-out: AUC0-t, geometric mean (geometric CV %)) was 1330 ng·h/mL and the Cmax ([2]; 1 × 100 mg tablet, fasted, read-out: Cmax, geometric mean (geometric CV %)) was 334 ng/mL. It also gave an AUC(0-inf) ([2]; 1 × 100 mg tablet, fasted, read-out: GLSM AUC0-inf) of 1370 ng·h/mL, an AUC(0-t) ([2]; 1 × 100 mg tablet, fasted, read-out: GLSM AUC0-t) of 1340 ng·h/mL and a Cmax ([2]; 1 × 100 mg tablet, fasted, read-out: GLSM Cmax) of 336 ng/mL. It also gave a Tmax ([2]; 1 × 100 mg tablet, fasted, read-out: Tmax, median (minimum − maximum)) of 1 h, a Vd/F ([2]; 1 × 100 mg tablet, fasted) of 536 L and a half-life ([2]; 1 × 100 mg tablet, fasted) of ~5 h. It also gave an AUC(0-inf) ([2]; 1 × 100 mg tablet, fed, read-out: AUC0-inf, geometric mean (geometric CV %)) of 1340 ng·h/mL, an AUC(0-t) ([2]; 1 × 100 mg tablet, fed, read-out: AUC0-t, geometric mean (geometric CV %)) of 1320 ng·h/mL and a Cmax ([2]; 1 × 100 mg tablet, fed, read-out: Cmax, geometric mean (geometric CV %)) of 262 ng/mL. It also gave an AUC(0-inf) ([2]; 1 × 100 mg tablet, fed, read-out: GLSM AUC0-inf) of 1350 ng·h/mL, an AUC(0-t) ([2]; 1 × 100 mg tablet, fed, read-out: GLSM AUC0-t) of 1330 ng·h/mL and a Cmax ([2]; 1 × 100 mg tablet, fed, read-out: GLSM Cmax) of 263 ng/mL. The Tmax ([2]; 1 × 100 mg tablet, fed, read-out: Tmax, median (minimum − maximum)) was 3 h, the Vd/F ([2]; 1 × 100 mg tablet, fed) was 507 L and the half-life ([2]; 1 × 100 mg tablet, fed) was ~5 h. The Tmax ([2]; 1 × 100 mg tablet, read-out: Tmax median difference (fed−fasted)) was 2 h, the “GMR AUC0-inf” value ([2]; fed vs fasted) was 98.89% and the “GMR AUC0-t” value ([2]; fed vs fasted) was 98.88%. For the same compound, the “GMR Cmax” value ([2]; fed vs fasted) was 78.39%, the “changes in laboratory parameters, vital signs, or ECG measurements” value ([3]; 100 mg single oral dose) was “no clinically relevant changes in laboratory parameters, vital signs, or ECG measurements” and the “participants with TEAEs, overall” value [3, 7] was 17.9%. For the same compound, the “participants with headache, overall” value [3, 7] was 2 participants, the “AE leading to study discontinuation” value [3, 8] was 0 n (%) and the “Any SAE” value [3, 8] was 0 n (%). The “Any TEAE” value [3, 8] was 3 (37.5) n (%), the “Any treatment-related TEAE” value [3, 8] was 2 (25.0) n (%) and the Deaths [3, 8] was 0 n (%). For the same compound, the Diarrhoea [3, 8] was 1 (12.5) n (%), the Dizziness [3, 8] was 0 n (%) and the Dyspepsia [3, 8] was 1 (12.5) n (%). The “Gastrointestinal Disorders” value [3, 8] was 2 (25.0) n (%), the Headache [3, 8] was 1 (12.5) n (%) and the “Nervous System Disorders” value [3, 8] was 1 (12.5) n (%). The “AE leading to study discontinuation” value [3, 9] was 0 n (%), the “Any SAE” value [3, 9] was 0 n (%) and the “Any TEAE” value [3, 9] was 2 (25.0) n (%). For the same compound, the “Any treatment-related TEAE” value [3, 9] was 2 (25.0) n (%), the Deaths [3, 9] was 0 n (%) and the Diarrhoea [3, 9] was 0 n (%). The Dizziness [3, 9] was 1 (12.5) n (%), the Dyspepsia [3, 9] was 0 n (%) and the “Gastrointestinal Disorders” value [3, 9] was 0 n (%). The Headache [3, 9] was 1 (12.5) n (%), the “Nervous System Disorders” value [3, 9] was 2 (25.0) n (%) and the “AE leading to study discontinuation” value [3, 10] was 0 n (%). For the same compound, the “Any SAE” value [3, 10] was 0 n (%), the “Any TEAE” value [3, 10] was 0 n (%) and the “Any treatment-related TEAE” value [3, 10] was 0 n (%). The Deaths [3, 10] was 0 n (%), the Diarrhoea [3, 10] was 0 n (%) and the Dizziness [3, 10] was 0 n (%). The Dyspepsia [3, 10] was 0 n (%), the “Gastrointestinal Disorders” value [3, 10] was 0 n (%) and the Headache [3, 10] was 0 n (%). The “Nervous System Disorders” value [3, 10] was 0 n (%), the “AE leading to study discontinuation” value [3, 11] was 0 n (%) and the “Any SAE” value [3, 11] was 0 n (%). The “Any TEAE” value [3, 11] was 0 n (%), the “Any treatment-related TEAE” value [3, 11] was 0 n (%) and the Deaths [3, 11] was 0 n (%). The Diarrhoea [3, 11] was 0 n (%), the Dizziness [3, 11] was 0 n (%) and the Dyspepsia [3, 11] was 0 n (%). For the same compound, the “Gastrointestinal Disorders” value [3, 11] was 0 n (%), the Headache [3, 11] was 0 n (%) and the “Nervous System Disorders” value [3, 11] was 0 n (%). The tolerability ([3]; healthy participants and participants with mild to severe hepatic impairment) was “well-tolerated”.
